This is an account of results in patent US12630544B2, “Compound, α-synuclein aggregate binder, and use thereof” (NATIONAL INSTITUTES FOR QUANTUM SCIENCE AND TECHNOLOGY, priority 2020, dated 2026).

In one assay the target is T1, α-synuclein lesion (Mus musculus, UniProt O55042).
T1 construct: from tissue; host or cells: brain of C57/BL/6 mouse inoculated in the striatum with recombinant (E. coli) mouse α-synuclein fibrils; sections or living animal
Description: In vivo two-photon laser scanning fluorescence microscopy of α-synuclein fibril-inoculated model mouse. The note with it: 50 μl DMSO solution containing 0.1% compound, i.p.; excitation 900 nm. How it is done: First, mouse α-synuclein was expressed in and extracted from E. coli as a recombinant protein, and then incubated in vitro to form insoluble α-synuclein aggregates. The α-synuclein aggregates were then inoculated into the striatum of a mouse. […] Note that the inoculation of the α-synuclein aggregates into the striatum of the mouse was carried out in the following manner. First, hair on the head of a 9-week-old C57/BL/6 male mouse which had been anesthetized with 1.5% (v/v) isoflurane was removed, and the scalp was disinfected with isodine, followed by application of xylocaine and incision in the scalp to expose the skull. Then, a hole was drilled in the skull at a position of 0.05 mm posterior to the bregma and 2 mm lateral to the midline, and 3 μl of an α-synuclein fibril solution (mouse α-synuclein fibril (4 mg/ml) in saline) was injected into a position […] ventral to the brain surface with use of a glass pipette. The scalp was then returned and sutured.
A model mouse was anesthetized with 1.5% (v/v) isoflurane 6 or more weeks after inoculation of an α-synuclein fibril solution. Then, a cranial window was placed on the model mouse in accordance with the Seylaz-Tomita method (Tomita et al. J Cereb Blood Flow Metab 25, 858-67, 2005). Two or more weeks after the placement of the cranial window, the mouse was anesthetized with 1.5% (v/v) isoflurane, and then 50 μl of a DMSO solution containing 0.1% BF-227, PBB3, SPAL-T-05, or SPAL-T-06 was intraperitoneally administered to the mouse. Thirty minutes after the administration, the mouse was fixed under a two-photon laser fluorescence microscope, 100 μl of physiological saline containing 5 mM Sulforhodamine 101 was intraperitoneally administered to the mouse, and then intravital two-photon fluorescence imaging was carried out at an excitation wavelength of 900 nm. Detection wavelengths for BF-227, PBB3, SPAL-T-05, and SPAL-T-06 were set at 500 nm to 550 nm, and a detection wavelength for Sulforhodamine 101 was set at 573 nm to 648 nm. In FIG. 4, each arrowhead indicates a blood vessel, and each arrow indicates fluorescence from the compound binding to an α-synuclein lesion.

Assay [1] concerns the target T2, α-synuclein aggregates (Homo sapiens, UniProt P37840). Nature of the assay: In vitro fluorescence microscope measurement, amygdala sections of DLB patient brain. Set-up: α-synuclein aggregates formed in the brain of the DLB patient; from tissue; host or cells: post-mortem human brain: amygdala of DLB patient (sections or homogenate); cerebellum of MSA patient. Conditions: 30 μM test compound. From the text: (§1) Postmortem human brains were obtained in autopsies carried out with respect to a patient with dementia with Lewy bodies (DLB) and a patient with Alzheimer's disease (AD). In a cryostat (HM560, Carl Zeiss), frozen tissue from the DLB patient was sliced into sections each having a thickness of 20 μm. Brain tissue from the AD patient was fixed in 10% neutral buffered formalin, embedded in a paraffin block, and sliced into sections each having a thickness of 6 μm.
Postfixed fresh frozen sections of amygdala tissue obtained from the brain of the DLB patient and deparaffinized sections of formalin-fixed paraffin-embedded middle frontal gyrus tissue obtained from the brain of the AD patient were used. Each brain section and a 30 μM test compound were incubated in a 50% ethanol solution at room temperature for 30 minutes. Thereafter, the section was washed with a 50% ethanol solution for 5 minutes and with ultrapure water for 3 minutes. This washing was carried out twice. After the section was mounted in a mounting medium (VECTASHIELD H-1000, Vector Laboratories), an image of a lesion-enriched area on the section was obtained with use of a fluorescence microscope (DM4000, Leica, excitation wavelength: 391 nm to 437 nm). In FIG. 1, each arrowhead indicates fluorescence from the compound binding to α-synuclein aggregates in the brain of the DLB patient, each arrow indicates fluorescence from the compound binding to amyloid-β aggregates in the brain of the AD patient, and an asterisk indicates fluorescence from the compound binding to tau aggregates in the brain of the AD patient. The fluorescence intensities of lesion-enriched areas and lesion-free areas (background) were quantified with use of analysis software (Image J). Note that SPAL-T-05 and SPAL-T-06 were each used as the test compound. Note also that BF-227 (2-(2-[2-dimethylaminothiazol-5-yl]ethenyl)-6-(2-[fluoro]ethoxy)benzoxazole (catalog No.: NP039-0)) and PBB3 (2-((1E,3E)-4-(6-(methylamino)pyridin-3-yl)buta-1,3-dienyl)benzo[d]thiazol-6-ol) (catalog No.: NP039-0), each available from NARD INSTITUTE, LTD., were each used as a control compound.

The subject of assay [2] is tau aggregates or amyloid-β aggregates. Description: In vitro fluorescence microscope measurement, middle frontal gyrus sections of AD patient brain. Conditions: 30 μM compound. Set-up: species or system human.
Description: as §1
Postfixed fresh frozen sections of amygdala tissue obtained from the brain of the DLB patient and deparaffinized sections of formalin-fixed paraffin-embedded middle frontal gyrus tissue obtained from the brain of the AD patient were used. […] After the section was mounted in a mounting medium (VECTASHIELD H-1000, Vector Laboratories), an image of a lesion-enriched area on the section was obtained with use of a fluorescence microscope (DM4000, Leica, excitation wavelength: 391 nm to 437 nm). In FIG. 1, each arrowhead indicates fluorescence from the compound binding to α-synuclein aggregates in the brain of the DLB patient, each arrow indicates fluorescence from the compound binding to amyloid-β aggregates in the brain of the AD patient, and an asterisk indicates fluorescence from the compound binding to tau aggregates in the brain of the AD patient. […]

Assay [3] deals with T2, α-synuclein aggregates. Conditions: background statement, cited from earlier work.

With `CN(C)c1ncc(C=Cc2nc3ccc(OCCF)cc3o2)s1` [BF-227, 2-(2-[2-dimethylaminothiazol-5-yl]ethenyl)-6-(2-[fluoro]ethoxy)benzoxazole, reference compound], on α-synuclein lesion, the “detection of / binding to α-synuclein lesions in living mouse brain (two-photon fluorescence)” value was “no α-synuclein lesion was detected”. Further, the “binding to α-synuclein aggregates formed in the brain of the DLB patient (fluorescence)” value on α-synuclein aggregates [1] (50% ethanol, room temperature, 30 minutes, amygdala sections) was “weaker than that of each of SPAL-T-06 and SPAL-T-05”. The “binding selectivity: α-synuclein aggregates (DLB brain) versus tau aggregates or amyloid-β aggregates (AD brain)” value on α-synuclein aggregates [1] (fluorescence of lesion-enriched vs lesion-free areas) is “low binding selectivity”. The “binding to aggregates in the brain of the AD patient (fluorescence)” value in assay [2] is on record as “mainly bound to the amyloid-β aggregates”.
Consider `CNc1ccc(/C=C/C=C/c2nc3ccc(O)cc3s2)cn1` [PBB3, 2-((1E,3E)-4-(6-(methylamino)pyridin-3-yl)buta-1,3-dienyl)benzo[d]thiazol-6-ol, reference compound], for which the “detection of / binding to α-synuclein lesions in living mouse brain (two-photon fluorescence)” value on α-synuclein lesion is “no α-synuclein lesion was detected”.
For `CN(C)c1ncc(C=Cc2nc3ccc(OCCF)cc3o2)s1` [[^11C]BF-227], on α-synuclein aggregates [3] (binds to amyloid-β aggregates), the “binding selectivity with respect to the α-synuclein aggregates” value was “low binding selectivity”. For the same molecule, the “binding affinity with respect to the α-synuclein aggregates” value on α-synuclein aggregates [3] is given as “insufficient binding affinity”.
